{"source": "patent US12458650B2", "about": "“Urination disorder-improving agent” (ASKA Pharmaceutical Co., Ltd., priority 2019, dated 2025)", "key": {"[1]": {"test_system": "lower urinary tract obstruction model of rats", "experiment": "Test Example 1: urination function in female rat lower urinary tract obstruction model (cystometry, tissue wet weights, survival)", "format": "in vivo", "conditions": "Group A: 10 mg/kg oral once a day, 2 weeks", "description": "A lower urinary tract obstruction model of rats was used as a test system. A test substance was orally administered to the lower urinary tract obstruction model repeatedly over two (2) weeks to examine the action on the urination function in the lower urinary tract obstruction model.\nMore specifically, the rats (female, Crl:CD(SD), 8-week-old; Charles River Laboratories Japan, Inc.) were operated to form lower urinary tract obstruction and repeatedly received oral administration of the test substance at a frequency of once a day over two (2) weeks. After the completion of the administration, each rat was subjected to bladder catheterization under anesthesia, cystometry under no anesthesia, then cystometry under urethane anesthesia, and euthanasia under deep anesthesia, and the tissues (bladder, kidney) of the rat were extracted or surgically removed. As a normal group, the rats without operation for forming lower urinary tract obstruction were used.\nThe test system, the test substances, and the dosage are as follows. • Normal group: 0.5 v/v. Polysorbate 80 solution, 10 mL/kg (n=6) • Solvent group (control group): 0.5 v/v % Polysorbate 80 solution, 10 mL/kg (n=15) • Group A: Compound A, 10 mg/kg (n=15) • Group B3: Compound B, 3 mg/kg (n=7) • Group B10: Compound B, 10 mg/kg (n=7)\nThe residual urine volume, the urination efficiency, and the bladder capacity were measured as follows.\nAfter urination, the residual urine was aspirated from the outlet end of the catheter placed in the bladder to measure the volume (mL) of the residual urine.\nAfter urination, the weight of the voided urine was measured to determine the voided volume (g=mL), and then the urination efficiency was calculated by the following equation: Urination efficiency (%)=[(Voided volume (mL))/(Voided volume (mL)+Residual urine volume (mL))]×100 [Bladder Capacity]\nThe bladder capacity was calculated from the voided volume and the residual urine volume by the following equation: Bladder capacity(mL)=Voided volume (mL)+Residual urine volume (mL)\nMoreover, the wet weight of the extracted bladder and that of the extracted kidney were measured."}, "[2]": {"test_system": "urination disorder model associated with diabetes", "experiment": "Test Example 4: urination disorder model associated with streptozocin-induced diabetes (cystometry, tissue weights, blood glucose, nomogram)", "format": "in vivo, rat", "conditions": "for Prostate, Dorsolateral prostate weight / Prostate, Ventral prostate weight: average ± SD; for Dorsolateral prostate (atrophy rate) / Seminal vesicle (atrophy rate) / Ventral prostate (atrophy rate) / Whole prostate (atrophy rate): relative to solvent group; for bladder contraction force on urination by nomogram analysis: in comparison with solvent group, FIG. 17", "experimental": "As described below, as a urination disorder model, a urination disorder model associated with diabetes was prepared to evaluate the urination disorder. This model has no benign prostatic hyperplasia and is a model of a urination disorder associated with neuropathy and smooth muscle contraction disorder.\nThe body weights of rats (male, Crl:CD(SD), 5-week-old; Charles River Laboratories Japan, Inc.) were measured. After the rats were fasted overnight, the blood was collected from the caudal vein to measure the fasting blood glucose. On the basis of the body weight and the tasting blood glucose level, the rats were grouped or divided into two (2) groups by randomized, multivariable block allocation. The day after the rats were grouped, a first group received intraperitoneal administration of a citrate buffer (pH 4.5) (10 mL/kg) having a concentration of 0.1 mmol/L, and a second group received intraperitoneal administration of streptozocin (STZ; Sigma-Aldrich) (50 mg/kg). Streptozocin (STZ) was administered in the form of a solution of streptozocin having a concentration of 5 mg/mL in the citrate buffer.\nAbout one (1) week after streptozocin (STZ) was administered, the body weight and the fasting blood glucose were measured. In the streptozocin (STZ) administration group (the second group), individuals having a fasting blood glucose level of not less than 300 mg/dL were used as animals with induced diabetes. These animals with induced diabetes are a model having no abnormality of the prostate (having no benign prostatic hyperplasia). On the basis of the body weight and the fasting blood glucose level, the animals (models) with induced diabetes were grouped or divided into three (3) groups by randomized, multivariable block allocation.\nTo the three model groups with induced diabetes, a 0.5 v/v % Polysorbate 80 solution (0.5% P) (10 mL/kg), the compound A (3 mg/kg), and the compound A (10 mg/kg) were orally administered, respectively, wherein the administration schedule in all groups was a frequency of once a day, only on weekdays, over four (4) weeks. Moreover, to the above-mentioned first group, a 0.5 v/v % Polysorbate 80 solution (0.5% P) (10 mL/kg) was orally administered in the same administration schedule (normal group). On the last day of administration, a cannula was inserted into and secured to the dome of the bladder under isoflurane anesthesia, and cystometry (Cystometogram, CMG) was conducted in the order of under awake condition and under urethane anesthesia to measure the intravesical pressure, the voided volume, and the residual urine volume. After the completion of the measurement, the blood was collected under deep isoflurane anesthesia, and then the prostate (ventral prostate, dorsolateral prostate), the seminal vesicle, the bladder, and the kidney were extracted and were each weighed. Moreover, the blood glucose level in the collected blood was measured.\nThe test substances and the dosage in the test system (rats having the urination disorder associated with diabetes) are as follows. • Normal group: citrate buffer 10 mL/kg (intraperitoneal administration), 0.5% P 10 mL/kg (oral administration) (n=10) • Solvent group (control group): STZ 50 mg/kg (intraperitoneal administration), 0.5% P 10 mL/kg (oral administration) (n=10) • Group A3: STZ 50 mg/kg (intraperitoneal administration), Compound A 3 mg/kg (oral administration) (n=10) • Group A10: STZ 50 mg/kg (intraperitoneal administration), Compound A 10 mg/kg (oral administration) (n=9) Urination Parameter:\nThe resulting data of the intravesical pressure, the voided volume, and the residual urine volume were analyzed, and the bladder capacity (mL), the residual urine volume (mL), and the urination efficiency (%) were determined as urination parameters in each urination. With respect to these urination parameters, the average value of two measurements was calculated and was taken as a measured value of each individual. […]"}, "[3]": {"conditions": "Group A3: 3 mg/kg oral, 4 weeks"}, "[4]": {"conditions": "Group A10: 10 mg/kg oral, 4 weeks"}}, "data": [{"smiles": "CC(=O)O[C@]1(C(C)=O)C[C@@H](O)[C@H]2[C@@H]3C=C(Cl)C4=CC(=O)OC[C@]4(C)[C@H]3CC[C@@]21C", "note": "[Compound A, 17α-acetoxy-6-chloro-15β-hydroxy-2-oxa-4,6-pregnadiene-3,20-dione]", "values": [{"measurement": "bladder wet weight", "setting": "[1]; FIG. 4", "value": "significantly inhibiting the increase"}, {"measurement": "kidney wet weight", "setting": "[1]; FIG. 5", "value": "significantly inhibiting the increase"}, {"measurement": "survival rate", "setting": "[1]; FIG. 6", "value": "no decrease"}, {"measurement": "residual urine volume", "setting": "[1]; vs control (solvent) group, FIG. 1", "value": "significantly decreased"}, {"measurement": "urination efficiency", "setting": "[1]; vs control group, FIG. 2", "value": "increased"}, {"measurement": "bladder capacity", "setting": "[1]; vs control group, FIG. 3", "value": "significantly decreased"}, {"measurement": "Prostate, Dorsolateral prostate weight", "setting": "[2]; [3]", "value": "35.3 ± 7.8", "unit": "mg/100 g body weight"}, {"measurement": "Prostate, Ventral prostate weight", "setting": "[2]; Group A3: 3 mg/kg oral, 4 weeks, male STZ rats", "value": "62.2 ± 11.4", "unit": "mg/100 g body weight"}, {"measurement": "Dorsolateral prostate (atrophy rate)", "setting": "[2]; [3]", "value": "(44.2%)"}, {"measurement": "Seminal vesicle (atrophy rate)", "setting": "[2]; [3]", "value": "(41.8%)"}, {"measurement": "Ventral prostate (atrophy rate)", "setting": "[2]; [3]", "value": "(43.0%)"}, {"measurement": "Whole prostate (atrophy rate)", "setting": "[2]; [3]", "value": "(43.4%)"}, {"measurement": "urination efficiency", "setting": "[2]; Group A3: 3 mg/kg, cystometry under anesthesia, FIG. 16", "value": "improved"}, {"measurement": "bladder contraction force on urination by nomogram analysis", "setting": "[2]; Group A3: 3 mg/kg, cystometry under anesthesia", "value": "strong bladder contraction force"}, {"measurement": "residual urine volume", "setting": "[2]; Group A3: 3 mg/kg, cystometry under anesthesia, vs solvent group, FIG. 15", "value": "significantly decreased"}, {"measurement": "bladder capacity", "setting": "[2]; Group A3: 3 mg/kg, cystometry under awake condition, vs solvent group, FIG. 11", "value": "significantly reduced"}, {"measurement": "residual urine volume", "setting": "[2]; Group A3: 3 mg/kg, cystometry under awake condition, vs solvent group, FIG. 12", "value": "significantly reduced"}, {"measurement": "urination efficiency", "setting": "[2]; Group A3: 3 mg/kg, cystometry under awake condition, vs solvent group, FIG. 13", "value": "improved"}, {"measurement": "therapeutic effect on diabetes (blood glucose level relative to the solvent group)", "setting": "[2]; Group A3 and Group A10: 3 and 10 mg/kg oral, 4 weeks", "value": "no therapeutic effect on diabetes"}, {"measurement": "Prostate, Dorsolateral prostate weight", "setting": "[2]; [4]", "value": "28.8 ± 6.1", "unit": "mg/100 g body weight"}, {"measurement": "Prostate, Ventral prostate weight", "setting": "[2]; [4]", "value": "53.1 ± 13.5", "unit": "mg/100 g body weight"}, {"measurement": "Dorsolateral prostate (atrophy rate)", "setting": "[2]; [4]", "value": "(54.5%)"}, {"measurement": "Seminal vesicle (atrophy rate)", "setting": "[2]; [4]", "value": "(50.2%)"}, {"measurement": "Ventral prostate (atrophy rate)", "setting": "[2]; [4]", "value": "(51.3%)"}, {"measurement": "Whole prostate (atrophy rate)", "setting": "[2]; [4]", "value": "(52.5%)"}, {"measurement": "urination efficiency", "setting": "[2]; Group A10: 10 mg/kg, cystometry under anesthesia, FIG. 16", "value": "improved"}, {"measurement": "bladder capacity", "setting": "[2]; Group A10: 10 mg/kg, cystometry under anesthesia, P=0.0336, FIG. 14", "value": "reduced"}, {"measurement": "bladder contraction force on urination by nomogram analysis", "setting": "[2]; Group A10: 10 mg/kg, cystometry under anesthesia", "value": "strong bladder contraction force"}, {"measurement": "residual urine volume", "setting": "[2]; Group A10: 10 mg/kg, cystometry under anesthesia, vs solvent group, FIG. 15", "value": "significantly decreased"}, {"measurement": "bladder capacity", "setting": "[2]; Group A10: 10 mg/kg, cystometry under awake condition, vs solvent group, FIG. 11", "value": "significantly reduced"}, {"measurement": "residual urine volume", "setting": "[2]; Group A10: 10 mg/kg, cystometry under awake condition, vs solvent group, FIG. 12", "value": "significantly reduced"}, {"measurement": "urination efficiency", "setting": "[2]; Group A10: 10 mg/kg, cystometry under awake condition, vs solvent group, P=0.0359, FIG. 13", "value": "significantly improved"}]}]}
